According to US20240398817A1, “CARDIO- AND RENOSAFE ANTIDIABETIC THERAPY” (priority 2018, published 2024):

Tested on: patients with type 2 diabetes at high vascular risk
Assay: Cardiovascular and Renal Outcomes Trial: linagliptin 5 mg once daily vs placebo on top of standard of care
Type: in vivo
Details: for Hazard ratio for hospitalised heart failure: vs placebo
Experimental: The effect of linagliptin on cardiovascular risk in adult patients with type 2 diabetes mellitus and with increased CV risk evidenced by a history of established macrovascular or renal disease (e.g. as defined herein) was evaluated in a multi-center, multi-national, randomized, double-blind parallel group trial. The trial compared the risk of experiencing a major adverse cardiovascular event (MACE) between linagliptin and placebo when these were added to and used concomitantly with standard of care treatments for diabetes (HbA1c), cardiovascular risk factors and renal disease.
The primary endpoint in this trial was the time to first occurrence of three point (3P) MACE. A major adverse cardiac event was defined as a cardiovascular death or a nonfatal myocardial infarction (MI) or a nonfatal stroke. The statistical analysis plan tested for non-inferiority for the occurrence of (3P) MACE. […] The secondary endpoint was a renal composite, defined as renal death or sustained end stage renal disease or sustained decrease of 40% or more in eGFR.
Type 2 diabetes patient with insufficient glycemic control (naïve or pre-treated with any antidiabetic background medication, excluding treatment with GLP-1 receptor agonists, DPP-4inhibitors or SGLT-2 inhibitors if ≥consecutive 7 days, e.g. having HbA1c 6.5-10%), and high risk of cardiovascular events, e.g. defined by: • albuminuria (micro or macro) and previous macrovascular disease: e.g. defined according to Condition I as indicated below; • and/or • impaired renal function: e.g. as defined according to Condition II as indicated below;
Background and aims: People with type 2 diabetes (T2D) are at increased risk for hospitalization for heart failure (hHF), particularly in the setting of concomitant cardiovascular (CV) and/or kidney disease. […] Here we present analyses of HF outcomes with the DPP-4 inhibitor linagliptin (LINA) vs. placebo (PBO) from a Cardiovascular and Renal Outcomes Trial assessing cardiovascular safety and renal microvascular outcome in patients with type 2 diabetes at high vascular risk, a large CV outcomes trial that enrolled participants with T2D at high risk for hHF due to concomitant CV and/or chronic kidney disease. Materials and methods: People with T2D and concomitant CV and/or kidney disease were randomized to receive LINA 5 mg, or PBO once daily (1:1), on top of standard of care. All hHF, CV outcomes, and deaths were centrally adjudicated, with individual and composite HF-related outcomes analyses comparing LINA vs. placebo. Investigator-reported HF-related adverse events, whether or not confirmed by adjudication, were also analyzed. A Cox proportional hazards model adjusting for region and history of HF was used for analyses of first events. Recurrent hHF events were analyzed using a negative binomial model.
Methods: The present Cardiovascular and Renal Outcomes Trial randomized people with T2D and i) concomitant CV disease with UACR >30 mg/g or ii) prevalent CKD (i.e. GFR <45 ml/min/1.73m2 and/or UACR >200 mg/g) to receive the DPP-4 inhibitor linagliptin (5 mg) or placebo once daily in a double-blind fashion. The primary CV endpoint was 3P-MACE, with a key secondary kidney endpoint (adjudicated ESKD, renal death, or sustained ≥40% decrease in eGFR from baseline) and other renal outcomes (including albuminuria and eGFR slope) also assessed. Subgroups were assessed by baseline kidney function (eGFR ≥/<45 ml/min/1.73m2and eGFR ≥/<30, 45 or 60 ml/min/1.73m2).
Adults with type 2 diabetes, HbA1c 6.5-10.0% inclusive, and high CV risk were eligible for inclusion. […] Macrovascular disease eligibility criteria was based on documented and confirmed history of myocardial infarction, coronary artery disease, stroke, carotid artery disease, or peripheral artery disease. Participants with end-stage kidney disease (ESKD), defined as eGFR <15 or requiring maintenance dialysis, were excluded.

[1] = Metformin-dose: Not on metformin
[2] = Prevalent kidney disease (eGFR<60 mL/min/1.73 m^2 or macroalbuminuria UACR >300 mg/g) No
[3] = Prevalent kidney disease (eGFR<60 mL/min/1.73 m^2 or macroalbuminuria UACR >300 mg/g) Yes
[4] = Prevalent kidney disease (eGFR<60 or UACR >300 mg/g) No
[5] = Prevalent kidney disease (eGFR<60 or UACR >300 mg/g) Yes

`CC#CCn1c(N2CCC[C@@H](N)C2)nc2c1c(=O)n(Cc1nc(C)c3ccccc3n1)c(=O)n2C` [Linagliptin, 1-[(4-methyl-quinazolin-2-yl)methyl]-3-methyl-7-(2-butyn-1-yl)-8-(3-(R)-amino-piperidin-1-yl)-xanthine] was tested, and the “Hazard ratio for hospitalised heart failure” value (History of heart failure Yes) was 0.88, the “3-point MACE: hazard ratio vs placebo” value (Insulin No) was 0.88 and the “3-point MACE: patients with event/patients analyzed” value (Insulin No) was 139/1487. The “Key secondary kidney outcome: hazard ratio vs placebo” value (Insulin No) was 1.08, the “Key secondary kidney outcome: patients with event/patients analyzed” value (Insulin No) was 101/1487 and the “Patients with event/patients analysed, hospitalised heart failure” value (shortened to “Patients with event/patients analysed”) (Insulin No) was 40/1487. The “Hazard ratio for hospitalised heart failure” value (Insulin No) was 0.62, the “3-point MACE: hazard ratio vs placebo” value (Insulin Yes) was 1.10 and the “3-point MACE: patients with event/patients analyzed” value (Insulin Yes) was 295/2007. The “Key secondary kidney outcome: hazard ratio vs placebo” value (Insulin Yes) was 1.01, the “Key secondary kidney outcome: patients with event/patients analyzed” value (Insulin Yes) was 226/2007 and the “Patients with event/patients analysed” value (Insulin Yes) was 169/2007. The “Hazard ratio for hospitalised heart failure” value (Insulin Yes) was 1.00, the “Patients with event/patients analysed” value (Ischemic heart disease No) was 66/1465 and the “Hazard ratio for hospitalised heart failure” value (Ischemic heart disease No) was 1.04. For the same compound, the “Patients with event/patients analysed” value (Ischemic heart disease Yes) was 143/2029, the “Hazard ratio for hospitalised heart failure” value (Ischemic heart disease Yes) was 0.85 and the “3-point MACE: hazard ratio vs placebo” value (Lipid lowering drugs No) was 0.90. For the same compound, the “3-point MACE: patients with event/patients analyzed” value (Lipid lowering drugs No) was 95/871, the “Key secondary kidney outcome: hazard ratio vs placebo” value (Lipid lowering drugs No) was 1.13 and the “Key secondary kidney outcome: patients with event/patients analyzed” value (Lipid lowering drugs No) was 101/871. The “Patients with event/patients analysed” value (Lipid lowering drugs No) was 34/871, the “Hazard ratio for hospitalised heart failure” value (Lipid lowering drugs No) was 1.01 and the “3-point MACE: hazard ratio vs placebo” value (Lipid lowering drugs Yes) was 1.06. The “3-point MACE: patients with event/patients analyzed” value (Lipid lowering drugs Yes) was 339/2623, the “Key secondary kidney outcome: hazard ratio vs placebo” value (Lipid lowering drugs Yes) was 1.00 and the “Key secondary kidney outcome: patients with event/patients analyzed” value (Lipid lowering drugs Yes) was 226/2623. For the same compound, the “Patients with event/patients analysed” value (Lipid lowering drugs Yes) was 175/2623, the “Hazard ratio for hospitalised heart failure” value (Lipid lowering drugs Yes) was 0.88 and the “Patients with event/patients analysed” value (Loop diuretics No) was 80/2530. For the same compound, the “Hazard ratio for hospitalised heart failure” value (Loop diuretics No) was 0.97, the “Patients with event/patients analysed” value (Loop diuretics Yes) was 129/964 and the “Hazard ratio for hospitalised heart failure” value (Loop diuretics Yes) was 0.90. For the same compound, the “3-point MACE: hazard ratio vs placebo” value (Metformin No) was 1.02, the “3-point MACE: patients with event/patients analyzed” value (Metformin No) was 242/1613 and the “Key secondary kidney outcome: hazard ratio vs placebo” value (Metformin No) was 0.99. For the same compound, the “Key secondary kidney outcome: patients with event/patients analyzed” value (Metformin No) was 212/1613, the “Patients with event/patients analysed” value (Metformin No) was 138/1613 and the “Hazard ratio for hospitalised heart failure” value (Metformin No) was 0.97. For the same compound, the “3-point MACE: hazard ratio vs placebo” value (Metformin Yes) was 1.02, the “3-point MACE: patients with event/patients analyzed” value (Metformin Yes) was 192/1881 and the “Key secondary kidney outcome: hazard ratio vs placebo” value (Metformin Yes) was 1.11. The “Key secondary kidney outcome: patients with event/patients analyzed” value (Metformin Yes) was 115/1881, the “Patients with event/patients analysed” value (Metformin Yes) was 71/1881 and the “Hazard ratio for hospitalised heart failure” value (Metformin Yes) was 0.79. For the same compound, the “3-point MACE: hazard ratio vs placebo” value (Metformin-dose >1500 mg) was 1.02, the “3-point MACE: patients with event/patients analyzed” value (Metformin-dose >1500 mg) was 111/1094 and the “Key secondary kidney outcome: hazard ratio vs placebo” value (Metformin-dose >1500 mg) was 0.99. For the same compound, the “Key secondary kidney outcome: patients with event/patients analyzed” value (Metformin-dose >1500 mg) was 62/1094, the “Patients with event/patients analysed” value (Metformin-dose >1500 mg) was 49/1094 and the “Hazard ratio for hospitalised heart failure” value (Metformin-dose >1500 mg) was 0.88. The “3-point MACE: hazard ratio vs placebo” value (Metformin-dose ≤1500 mg) was 1.02, the “3-point MACE: patients with event/patients analyzed” value (Metformin-dose ≤1500 mg) was 81/787 and the “Key secondary kidney outcome: hazard ratio vs placebo” value (Metformin-dose ≤1500 mg) was 1.29. For the same compound, the “Key secondary kidney outcome: patients with event/patients analyzed” value (Metformin-dose ≤1500 mg) was 53/787, the “Patients with event/patients analysed” value (Metformin-dose ≤1500 mg) was 22/787 and the “Hazard ratio for hospitalised heart failure” value (Metformin-dose ≤1500 mg) was 0.65. The “3-point MACE: hazard ratio vs placebo” value [1] was 1.02, the “3-point MACE: patients with event/patients analyzed” value [1] was 242/1613 and the “Key secondary kidney outcome: hazard ratio vs placebo” value [1] was 0.99. For the same compound, the “Key secondary kidney outcome: patients with event/patients analyzed” value [1] was 212/1613, the “Patients with event/patients analysed” value [1] was 138/1613 and the “Hazard ratio for hospitalised heart failure” value [1] was 0.97. For the same compound, the “Patients with event/patients analysed” value [2] was 18/887, the “Hazard ratio for hospitalised heart failure” value [2] was 0.69 and the “Patients with event/patients analysed” value [3] was 191/2606. The “Hazard ratio for hospitalised heart failure” value [3] was 0.91, the “3-point MACE: hazard ratio vs placebo” value [4] was 0.88 and the “3-point MACE: patients with event/patients analyzed” value [4] was 60/887. For the same compound, the “Key secondary kidney outcome: hazard ratio vs placebo” value [4] was 1.36, the “Key secondary kidney outcome: patients with event/patients analyzed” value [4] was 19/887 and the “3-point MACE: hazard ratio vs placebo” value [5] was 1.04. The “3-point MACE: patients with event/patients analyzed” value [5] was 374/2606, the “Key secondary kidney outcome: hazard ratio vs placebo” value [5] was 0.99 and the “Key secondary kidney outcome: patients with event/patients analyzed” value [5] was 308/2606. The “3-point MACE: hazard ratio vs placebo” value (Race Asian) was 1.09, the “3-point MACE: patients with event/patients analyzed” value (Race Asian) was 40/307 and the “Key secondary kidney outcome: hazard ratio vs placebo” value (Race Asian) was 0.90. The “Key secondary kidney outcome: patients with event/patients analyzed” value (Race Asian) was 32/307, the “Patients with event/patients analysed” value (Race Asian) was 14/307 and the “3-point MACE: hazard ratio vs placebo” value (Race Black/African-American) was 1.30. The “3-point MACE: patients with event/patients analyzed” value (Race Black/African-American) was 31/194, the “Key secondary kidney outcome: hazard ratio vs placebo” value (Race Black/African-American) was 1.31 and the “Key secondary kidney outcome: patients with event/patients analyzed” value (Race Black/African-American) was 35/194. For the same compound, the “Patients with event/patients analysed” value (Race Black/African-American) was 15/194.
